Test results: the NIST ThermoML archive (doi:10.1016/j.jct.2015.06.036)
± gives the expanded uncertainty stated by the source.

What was measured:
[1] = 101 kPa, Liquid; for viscosity: Falling or rolling sphere viscometry; for speed of sound: Sing-around technique in a fixed-path interferometer; for mass density: Vibrating tube method
[2] = refractive index (Na D-line) (dimensionless); conditions: 101 kPa, Liquid, Standard Abbe refractometry
[3] = xn = mol fraction of the nth substance listed; conditions: 101 kPa, Liquid, x2 = 0; for viscosity: Falling or rolling sphere viscometry; for speed of sound: Sing-around technique in a fixed-path interferometer; for mass density: Vibrating tube method
[4] = refractive index (Na D-line) (dimensionless); xn = mol fraction of the nth substance listed; conditions: 101 kPa, Liquid, Standard Abbe refractometry, x2 = 0

| Compound | viscosity ([1]; 278.15 K) [mPa·s] | speed of sound ([1]; 278.15 K) [m/s] | mass density ([1]; 278.15 K) [kg/m3] | viscosity ([1]; 288.15 K) [mPa·s] | speed of sound ([1]; 288.15 K) [m/s] | mass density ([1]; 288.15 K) [kg/m3] | viscosity ([1]; 298.15 K) [mPa·s] | speed of sound ([1]; 298.15 K) [m/s] | mass density ([1]; 298.15 K) [kg/m3] | viscosity ([1]; 308.15 K) [mPa·s] | speed of sound ([1]; 308.15 K) [m/s] | mass density ([1]; 308.15 K) [kg/m3] | viscosity ([1]; 318.15 K) [mPa·s] | speed of sound ([1]; 318.15 K) [m/s] | mass density ([1]; 318.15 K) [kg/m3] | refractive index ([2]; 288.15 K) | refractive index ([2]; 298.15 K) | refractive index ([2]; 308.15 K) | refractive index ([2]; 318.15 K) | viscosity ([3]; 278.15 K) [mPa·s] | also measured |
| --- | --- | --- | --- | --- | --- | --- | --- | --- | --- | --- | --- | --- | --- | --- | --- | --- | --- | --- | --- | --- | --- |
| CCCCn1cc[n+](C)c1.F[B-](F)(F)F [1-butyl-3-methylimidazolium tetrafluoroborate] | 361 ± 26 | 1615 ± 2 | 1215.9 ± 0.4 | 186 ± 11 | 1590 ± 2 | 1208.5 ± 0.4 | 105 ± 5 | 1565 ± 2 | 1201.3 ± 0.4 | 64.8 ± 2.7 | 1542 ± 2 | 1194.2 ± 0.4 | 42.7 ± 1.8 | 1519 ± 2 | 1187.2 ± 0.4 | 1.4243 ± 0.0005 | 1.4217 ± 0.0005 | 1.419 ± 0.0005 | 1.4164 ± 0.0005 |  |  |
| CCn1cc[n+](C)c1.F[B-](F)(F)F [1-ethyl-3-methylimidazolium tetrafluoroborate] | 101 ± 5 | 1677 ± 3 | 1305.3 ± 1.5 | 62 ± 2.6 | 1653 ± 3 | 1297.6 ± 1.5 | 41 ± 1.7 | 1629 ± 3 | 1290 ± 1.5 | 28.8 ± 1.2 | 1606 ± 3 | 1282.4 ± 1.5 | 21.2 ± 0.9 | 1583 ± 3 | 1274.9 ± 1.5 | 1.4143 ± 0.0006 | 1.4118 ± 0.0006 | 1.4092 ± 0.0006 | 1.4067 ± 0.0006 |  |  |
| CO [methanol] | 0.687 ± 0.028 | 1169 ± 2 | 805.4 ± 0.2 | 0.596 ± 0.024 | 1135 ± 2 | 796 ± 0.2 | 0.524 ± 0.021 | 1102 ± 2 | 786.6 ± 0.2 | 0.466 ± 0.019 | 1070 ± 2 | 777.1 ± 0.2 | 0.42 ± 0.017 | 1037 ± 2 | 767.6 ± 0.2 | 1.3316 ± 0.0005 | 1.3265 ± 0.0005 | 1.3224 ± 0.0005 | 1.3182 ± 0.0005 |  |  |
| CO [methanol] + CCCCn1cc[n+](C)c1.F[B-](F)(F)F |  |  |  |  |  |  |  |  |  |  |  |  |  |  |  |  |  |  |  | 0.687 ± 0.028 | speed of sound ([3]; 278.15 K): 1169 ± 2 m/s; mass density ([3]; 278.15 K): 805.4 ± 0.2 kg/m3; viscosity ([3]; 288.15 K): 0.596 ± 0.024 mPa·s; speed of sound ([3]; 288.15 K): 1135 ± 2 m/s; mass density ([3]; 288.15 K): 796 ± 0.2 kg/m3; viscosity ([3]; 298.15 K): 0.524 ± 0.021 mPa·s; speed of sound ([3]; 298.15 K): 1102 ± 2 m/s; mass density ([3]; 298.15 K): 786.6 ± 0.2 kg/m3; viscosity ([3]; 308.15 K): 0.466 ± 0.019 mPa·s; speed of sound ([3]; 308.15 K): 1070 ± 2 m/s; mass density ([3]; 308.15 K): 777.1 ± 0.2 kg/m3; viscosity ([3]; 318.15 K): 0.42 ± 0.017 mPa·s; speed of sound ([3]; 318.15 K): 1037 ± 2 m/s; mass density ([3]; 318.15 K): 767.6 ± 0.2 kg/m3; refractive index ([4]; 288.15 K): 1.3316 ± 0.0005; refractive index ([4]; 298.15 K): 1.3265 ± 0.0005; refractive index ([4]; 308.15 K): 1.3224 ± 0.0005; refractive index ([4]; 318.15 K): 1.3182 ± 0.0005 |
| CO [methanol] + CCn1cc[n+](C)c1.F[B-](F)(F)F |  |  |  |  |  |  |  |  |  |  |  |  |  |  |  |  |  |  |  | 0.687 ± 0.028 | speed of sound ([3]; 278.15 K): 1169 ± 2 m/s; mass density ([3]; 278.15 K): 805.4 ± 0.2 kg/m3; viscosity ([3]; 288.15 K): 0.596 ± 0.024 mPa·s; speed of sound ([3]; 288.15 K): 1135 ± 2 m/s; mass density ([3]; 288.15 K): 796 ± 0.2 kg/m3; viscosity ([3]; 298.15 K): 0.524 ± 0.021 mPa·s; speed of sound ([3]; 298.15 K): 1102 ± 2 m/s; mass density ([3]; 298.15 K): 786.6 ± 0.2 kg/m3; viscosity ([3]; 308.15 K): 0.466 ± 0.019 mPa·s; speed of sound ([3]; 308.15 K): 1069 ± 2 m/s; mass density ([3]; 308.15 K): 777.1 ± 0.2 kg/m3; viscosity ([3]; 318.15 K): 0.42 ± 0.017 mPa·s; speed of sound ([3]; 318.15 K): 1037 ± 2 m/s; mass density ([3]; 318.15 K): 767.6 ± 0.2 kg/m3; refractive index ([4]; 288.15 K): 1.3316 ± 0.0005; refractive index ([4]; 298.15 K): 1.3265 ± 0.0005; refractive index ([4]; 308.15 K): 1.3224 ± 0.0005; refractive index ([4]; 318.15 K): 1.3182 ± 0.0005 |
